Reference: patent US7074777B2, “Vitamin D derivatives” (Chugai Seiyaku Kabushiki Kaisha, priority 2000, dated 2006)

What was measured:
[1] = tested on: Keratinocytes derived from human neonatal foreskin; experiment: Test Example 2: inhibition of human keratinocyte proliferation ([3H] thymidine uptake); format: cell-based; settings: relative value = [IC50 (mol/l) of 1α,25(OH)2vitamin D3]/[IC50 (mol/l) of each Compound]
Method: Keratinocytes derived from human neonatal foreskin (Clonetics) were inoculated in 96 well-plates (COSTAR 3595) at 2×10^3 cells/well. Active vitamin D3 (1α,25(OH)2D3) and Compounds 1 to 13 at various concentrations were added to respective wells and cultured at 2×10^3 cells/200 μl/well in KGM-2 medium for 3 days at 37° C. in 5% CO2 and 95% air. After adding [^3H] thymidine at 7.4 kBq/well, the cell culture was continued for further 1 day. After washing the wells with phosphate buffer free of calcium and magnesium (Dulbecco PBS(−), NISSUI, code 05913, pH 7.3 to 7.65) once, the cells were stripped using 0.25% […]. The [^3H] thymidine uptake of the cells was measured by a liquid scintillation counter (1450 microbeta, WALLAC). In the Table, the inhibition of human keratinocyte proliferation is expressed as follows: the relative value of each Compound with respect to active vitamin D3=[IC50 (mol/l) of 1α,25(OH)2vitamin D3]/[IC50 (mol/l) of each Compound]

[2] = Test Example 1: ionized calcium level in blood after single percutaneous application to dorsal skin of mice (ion selective electrode method); format: in vivo; settings: Balb/c mice, dosage 1000 μg/kg, blood drawn two days after application, mean of 3 mice
Method: Active vitamin D3 (1α,25 (OH)2vitamin D3) dissolved in ethanol at the concentration of 125 μg/ml, Compounds 1 to 13 (the vitamin D derivatives obtained in the above Examples) dissolved in ethanol at the concentration of 500 μg/ml and ethanol alone (as control) were percutaneously applied once to the dorsal skin of respective 8-week-old male Balb/c mice (approximately 1.5×2.0 cm^2). The dosage was 2 ml/kg and each mouse received a necklace to prevent ingestion. On the next day, the application areas were cleaned and necklaces were removed from the mice. Two days after the application, blood was drawn from each mouse in order to measure the ionized calcium level in the blood by an ion selective electrode method. In this experiment, each group contained 3 mice. The ionized calcium levels in the Table indicate the mean values.

Row | Compound | Human keratinocyte proliferation inhibition (relative value) [1] | Ionized Ca level [2] [mmol/L]
1 | 1α, 25(OH)2D3 | 1.0 | 
2 | C=C1C(=CC=C2CCCC3(C)C(COCCC(C)(C)O)=CCC23)CC(O)CC1O (stereo not drawn) [Compound 1, 1α,3β-dihydroxy-17-(3-hydroxy-3-methylbutoxymethyl)-9,10-secoandrosta-5,7,10(19),16-tetraene] | 0.6 | 1.52
3 | C=C1C(=CC=C2CCCC3(C)C(COCCCC(O)(CC)CC)=CCC23)CC(O)CC1O (stereo not drawn) [Compound 2, 17-(4-ethyl-4-hydroxyhexyloxymethyl)-1α,3β-dihydroxy-9,10-secoandrosta-5,7,10(19),16-tetraene] | 1.9 | 2.12
4 | C=C1C(=CC=C2CCCC3(C)C(COCCCCC(C)(C)O)=CCC23)CC(O)CC1O (stereo not drawn) [Compound 3, 1α,3β-dihydroxy-17-(5-hydroxy-5-methylhexyloxymethyl)-9,10-secoandrosta-5,7,10(19),16-tetraene] | 1.2 | 1.81
5 | C=C1C(=CC=C2CCCC3(C)C(COCCCC(C)(C)O)=CCC23)CC(O)CC1O (stereo not drawn) [Compound 4, 1α,3β-dihydroxy-17-(4-hydroxy-4-methylpentyloxymethyl)-9,10-secoandrosta-5,7,10(19),16-tetraene] | 0.7 | 1.68
6 | C=C1C(=CC=C2CCCC3(C)C(COCC#CC(C)(C)O)=CCC23)CC(O)CC1O (stereo not drawn) [Compound 5, 1α,3β-dihydroxy-17-(4-hydroxy-4-methyl-2-pentynyloxymethyl)-9,10-secoandrosta-5,7,10(19),16-tetraene] | 1.8 | 1.63
